Data from patent US5981576A, “(Methylsulfonyl)phenyl-2-(5H)-furanones as COX-2 inhibitors” (Merck Frosst Canada, Inc., priority 1998, dated 1999).

How the values were obtained:
COX-2 [1] = molecular target: T1, COX-2 (Homo sapiens, UniProt P35354); assay: biochemical; conditions: Table IV; purified human COX-2; read-out: COX-2 (IC50, μM) TMPD
T1 sequence (P35354 18-604): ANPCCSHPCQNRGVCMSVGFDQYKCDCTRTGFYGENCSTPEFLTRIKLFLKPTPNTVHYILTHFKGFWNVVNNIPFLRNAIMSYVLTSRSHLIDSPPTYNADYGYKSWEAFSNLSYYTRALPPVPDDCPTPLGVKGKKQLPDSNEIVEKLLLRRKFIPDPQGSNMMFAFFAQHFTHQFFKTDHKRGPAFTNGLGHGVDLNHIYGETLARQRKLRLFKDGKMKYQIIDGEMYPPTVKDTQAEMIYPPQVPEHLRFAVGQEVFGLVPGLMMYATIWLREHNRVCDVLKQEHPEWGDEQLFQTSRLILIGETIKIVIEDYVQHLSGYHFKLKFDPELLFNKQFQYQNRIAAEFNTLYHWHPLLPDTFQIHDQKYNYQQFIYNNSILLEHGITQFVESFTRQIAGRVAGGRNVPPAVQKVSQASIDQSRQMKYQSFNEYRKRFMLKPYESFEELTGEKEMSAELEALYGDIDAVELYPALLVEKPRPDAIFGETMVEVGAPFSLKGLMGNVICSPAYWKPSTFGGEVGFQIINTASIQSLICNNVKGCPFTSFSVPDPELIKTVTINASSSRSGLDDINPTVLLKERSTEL
Procedure: Assay of the activity of purified human COX-2
The assay mixture (180 μL) contains 100 mM sodium phosphate, pH 6.5, 2 mM genapol X-100, 1 μM hematin, 1 mg/ml gelatin, 80-100 units of purified enzyme (One unit of enzyme is defined as the amount of enzyme required to produce an O.D. change of 0.001/min at 610 nm) and 4 μL of the test compound in DMSO. The mixture is pre-incubated at room temperature (22° C.) for 15 minutes prior to initiation of the enzymatic reaction by the addition of 20 μL of a sonicated solution of 1 mM arachidonic acid (AA) and 1 mM TMPD in assay buffer (without enzyme or hematin). The enzymatic activity is measured by estimation of the initial velocity of TMPD oxidation over the first 36 sec of the reaction. […] IC50 values are derived from 4-parameter least squares non-linear regression analysis of the log-dose vs % inhibition plot.

COX-2 [2] = molecular target: T1, COX-2; assay: cell-based; conditions: Table IV; CHO[hCOX-2] cells, 10 μM AA
Procedure: Chinese hamster ovary (CHO) cell lines which have been stably transfected with an eukaryotic expression vector pCDNAIII containing either the human COX-1 or COX-2 cDNA's are used for the assay. These cell lines are referred to as CHO [hCOX-1] and CHO [hCOX-2], respectively. […] Cells (0.3×10^6 cells in 200 μl) are preincubated with 3 μl of the test drug or DMSO vehicle for 15 min at 37° C. […] Cells are then challenged in the presence or absence of drug with the AA/HBSS solution to yield a final concentration of 0.5 μM AA in the CHO[hCOX-1] assay and a final concentration of 10 μM AA in the CHO[hCOX-2] assay. […] The samples are centrifuged at 300×g at 4° C. for 10 min, and an aliquot of the clarified supernatant is appropriately diluted for the determination of PGE2 levels using an enzyme-linked immunoassay for PGE2 (Correlate PGE2 enzyme immunoassay kit, Assay Designs, Inc.). Cyclooxygenase activity in the absence of test compounds is determined as the difference in PGE2 levels of cells challenged with arachidonic acid versus the PGE2 levels in cells mock-challenged with ethanol vehicle. Inhibition of PGE2 synthesis by test compounds is calculated as a percentage of the activity in the presence of drug versus the activity in the positive control samples.

COX-2 [3] = molecular target: T1, COX-2; assay: cell-based; conditions: Table IV; human whole blood, LPS-induced PGE2; read-out: COX-2 (IC50, μM) HWB
Description: As well, platelets in whole blood contain a large amount of the COX-1 enzyme. Immediately following blood clotting, platelets are activated through a thrombin-mediated mechanism. […] Therefore, the degree of selectivity by the test compound can be determined by measuring the levels of PGE2 after LPS induction (COX-2) and TxB2 following blood clotting (COX-1) in the same assay.
A. COX-2 (LPS-induced PGF, production)
Fresh blood is collected in heparinized tubes by venipuncture from both male and female volunteers. The subjects have no apparent inflammatory conditions and have not taken any NSAIDs for at least 7 days prior to blood collection. Plasma is immediately obtained from a 2 mL blood aliquot to use as blank (basal levels of PGE2).

Rat Paw Edema = assay: Rat paw edema assay (carrageenan); assay type: in vivo, Male Sprague-Dawley rats; conditions: 3 h, Table IV, po
Procedure: Male Sprague-Dawley rats (150-200 g) are fasted overnight and are given, po, either vehicle (1% methocel or 5% Tween 80) or a test compound. One hr later, a line is drawn using a permanent marker at the level above the ankle in one hind paw to define the area of the paw to be monitored. The paw volume (V0) is measured using a plethysmometer (Ugo-Basile, Italy) based on the principle of water displacement. […] The animals are sacrificed by CO2 asphyxiation and the absence or presence of stomach lesions scored. Data is compared with the vehicle-control values and percent inhibition calculated. All treatment groups are coded to eliminate observer bias.

IC50 (COX-2 [1]) [µM]	IC50 (COX-2 [2]) [µM]	IC50 (COX-2 [3]) [µM]	Compound	ED50 (Rat Paw Edema) [mg/kg]
7.8	0.2	0.61	CC1(C)OC(=O)C(Oc2cncc(Cl)c2)=C1c1ccc(S(C)(=O)=O)cc1 [Example 49, 3-(3-Chloro-5-pyridiloxy)-5,5-dimethyl-4-(4-(methylsulfonyl)phenyl)-5H-furan-2-one]	
8	0.06	0.62	CC[C@@]1(C)OC(=O)C(Oc2ccc(F)cn2)=C1c1ccc(S(C)(=O)=O)cc1 [Example 162, (5R)-3-(5-Fluoro-2-pyridyloxy)-5-ethyl-5-methyl-4-(4-methylsulfonyl)-phenyl-5H-furan-2-one]	
			C[C@]1(CC(F)(F)F)OC(=O)C(Oc2ccc(F)cc2)=C1c1ccc(S(C)(=O)=O)cc1 [Example 166, (5R)-3-(4-fluorophenoxy)-5-methyl-4-(4-methylsulfonyl)phenyl-5-(2,2,2-trifluoroethyl)-5H-furan-2-one]	4.9
